Measurements reported in patent publication US12404262B2 (priority 2021, dated 2025).

Conditions: 1.0% DMSO, 24-hour incubation at ambient temperature, maximum theoretical 100 μM; for pH 2 solubility: 0.1N HCl, first value of the cell; for pH 7 solubility: 1×PBS buffer (pH 7.4), second value of the cell

Row | Compound | pH 2 solubility | pH 7 solubility
1 | C[C@@H](O)[C@H](NC(=O)N(c1nn(CC(F)(F)F)c2c(-c3ccc(C#CC(C)(C)S(C)(=O)=O)nc3[C@H](Cc3cc(F)cc(F)c3)NC(=O)Cn3nc(C(F)(F)F)c4c3C(F)(F)[C@@H]3C[C@H]43)ccc(Cl)c12)S(C)(=O)=O)C(=O)O [Compound 61, ((4-chloro-7-(2-((S)-1-(2-((3bS,4aR)-5,5-difluoro-3-(trifluoromethyl)-3b,4,4a,5-tetrahydro-1H-cyclopropa[3,4]cyclopenta[1,2-c]pyrazol-1-yl)acetamido)-2-(3,5-difluorophenyl)ethyl)-6-(3-methyl-3-(methylsulfonyl)but-1-yn-1-yl)pyridin-3-yl)-1-(2,2,2-trifluoroethyl)-1H-indazol-3-yl)(methylsulfonyl)carbamoyl)-L-threonine] | 1 μM | 9 μM
2 | CC(C)(C#Cc1ccc(-c2ccc(Cl)c3c(N(C(=O)NC(COP(=O)(O)O)COP(=O)(O)O)S(C)(=O)=O)nn(CC(F)(F)F)c23)c([C@H](Cc2cc(F)cc(F)c2)NC(=O)Cn2nc(C(F)(F)F)c3c2C(F)(F)[C@@H]2C[C@H]32)n1)S(C)(=O)=O [Compound 38, 2-(3-(4-chloro-7-(2-((S)-1-(2-((3bS,4aR)-5,5-difluoro-3-(trifluoromethyl)-3b,4,4a,5-tetrahydro-1H-cyclopropa[3,4]cyclopenta[1,2-c]pyrazol-1-yl)acetamido)-2-(3,5-difluorophenyl)ethyl)-6-(3-methyl-3-(methylsulfonyl)but-1-yn-1-yl)pyridin-3-yl)-1-(2,2,2-trifluoroethyl)-1H-indazol-3-yl)-3-(methylsulfonyl)ureido)propane-1,3-diyl bis(dihydrogen phosphate)] | 10 μM | 16 μM
3 | CN(CCCN)C(=O)N(c1nn(CC(F)(F)F)c2c(-c3ccc(C#CC(C)(C)S(C)(=O)=O)nc3[C@H](Cc3cc(F)cc(F)c3)NC(=O)Cn3nc(C(F)(F)F)c4c3C(F)(F)[C@@H]3C[C@H]43)ccc(Cl)c12)S(C)(=O)=O [Compound 79, N—((S)-1-(3-(3-(N-((3-aminopropyl)(methyl)carbamoyl)methylsulfonamido)-4-chloro-1-(2,2,2-trifluoroethyl)-1H-indazol-7-yl)-6-(3-methyl-3-(methylsulfonyl)but-1-yn-1-yl)pyridin-2-yl)-2-(3,5-difluorophenyl)ethyl)-2-((3bS,4aR)-5,5-difluoro-3-(trifluoromethyl)-3b,4,4a,5-tetrahydro-1H-cyclopropa[3,4]cyclopenta[1,2-c]pyrazol-1-yl)acetamide] | 59 μM | 14 μM
4 | CC(C)(C#Cc1ccc(-c2ccc(Cl)c3c(N(C(=O)OCCOCCOCCOCCOP(=O)(O)O)S(C)(=O)=O)nn(CC(F)(F)F)c23)c([C@H](Cc2cc(F)cc(F)c2)NC(=O)Cn2nc(C(F)(F)F)c3c2C(F)(F)[C@@H]2C[C@H]32)n1)S(C)(=O)=O [Compound 110, 2-(2-(2-(2-(phosphonooxy)ethoxy)ethoxy)ethoxy)ethyl (4-chloro-7-(2-((S)-1-(2-((3bS,4aR)-5,5-difluoro-3-(trifluoromethyl)-3b,4,4a,5-tetrahydro-1H-cyclopropa[3,4]cyclopenta[1,2-c]pyrazol-1-yl)acetamido)-2-(3,5-difluorophenyl)ethyl)-6-(3-methyl-3-(methylsulfonyl)but-1-yn-1-yl)pyridin-3-yl)-1-(2,2,2-trifluoroethyl)-1H-indazol-3-yl)(methylsulfonyl)carbamate] | 1 μM | 100 μM
5 | CC(C)(C#Cc1ccc(-c2ccc(Cl)c3c(N(C(=O)OCCCO)S(C)(=O)=O)nn(CC(F)(F)F)c23)c([C@H](Cc2cc(F)cc(F)c2)NC(=O)Cn2nc(C(F)(F)F)c3c2C(F)(F)[C@@H]2C[C@H]32)n1)S(C)(=O)=O [Compound 97, 3-hydroxypropyl (4-chloro-7-(2-((S)-1-(2-((3bS,4aR)-5,5-difluoro-3-(trifluoromethyl)-3b,4,4a,5-tetrahydro-1H-cyclopropa[3,4]cyclopenta[1,2-c]pyrazol-1-yl)acetamido)-2-(3,5-difluorophenyl)ethyl)-6-(3-methyl-3-(methylsulfonyl)but-1-yn-1-yl)pyridin-3-yl)-1-(2,2,2-trifluoroethyl)-1H-indazol-3-yl)(methylsulfonyl)carbamate] | 1 μM | 2 μM
6 | CC(C)(C#Cc1ccc(-c2ccc(Cl)c3c(N(C(=O)OCCOCCOCCOP(=O)(O)O)S(C)(=O)=O)nn(CC(F)(F)F)c23)c([C@H](Cc2cc(F)cc(F)c2)NC(=O)Cn2nc(C(F)(F)F)c3c2C(F)(F)[C@@H]2C[C@H]32)n1)S(C)(=O)=O [Compound 108, 2-(2-(2-(phosphonooxy)ethoxy)ethoxy)ethyl (4-chloro-7-(2-((S)-1-(2-((3bS,4aR)-5,5-difluoro-3-(trifluoromethyl)-3b,4,4a,5-tetrahydro-1H-cyclopropa[3,4]cyclopenta[1,2-c]pyrazol-1-yl)acetamido)-2-(3,5-difluorophenyl)ethyl)-6-(3-methyl-3-(methylsulfonyl)but-1-yn-1-yl)pyridin-3-yl)-1-(2,2,2-trifluoroethyl)-1H-indazol-3-yl)(methylsulfonyl)carbamate] | 1 μM | 100 μM
7 | CC(NC(=O)N(c1nn(CC(F)(F)F)c2c(-c3ccc(C#CC(C)(C)S(C)(=O)=O)nc3[C@H](Cc3cc(F)cc(F)c3)NC(=O)Cn3nc(C(F)(F)F)c4c3C(F)(F)[C@@H]3C[C@H]43)ccc(Cl)c12)S(C)(=O)=O)(C(=O)O)C(=O)O [Compound 52, 2-(3-(4-chloro-7-(2-((S)-1-(2-((3bS,4aR)-5,5-difluoro-3-(trifluoromethyl)-3b,4,4a,5-tetrahydro-1H-cyclopropa[3,4]cyclopenta[1,2-c]pyrazol-1-yl)acetamido)-2-(3,5-difluorophenyl)ethyl)-6-(3-methyl-3-(methylsulfonyl)but-1-yn-1-yl)pyridin-3-yl)-1-(2,2,2-trifluoroethyl)-1H-indazol-3-yl)-3-(methylsulfonyl)ureido)-2-methylmalonic acid] | 1 μM | 100 μM
8 | CC(C)(C#Cc1ccc(-c2ccc(Cl)c3c(N(C(=O)CN4CCOCC4)S(C)(=O)=O)nn(CC(F)(F)F)c23)c([C@H](Cc2cc(F)cc(F)c2)NC(=O)Cn2nc(C(F)(F)F)c3c2C(F)(F)[C@@H]2C[C@H]32)n1)S(C)(=O)=O [Compound 4, (N-(4-chloro-7-(2-((S)-1-(2-((3bS,4aR)-5,5-difluoro-3-(trifluoromethyl)-3b,4,4a,5-tetrahydro-1H-cyclopropa[3,4]cyclopenta[1,2-c]pyrazol-1-yl)acetamido)-2-(3,5-difluorophenyl)ethyl)-6-(3-methyl-3-(methylsulfonyl)but-1-yn-1-yl)pyridin-3-yl)-1-(2,2,2-trifluoroethyl)-1H-indazol-3-yl)-N-(methylsulfonyl)-2-morpholinoacetamide)] | 33 μM | 7 μM
9 | C[C@@H](C(=O)OCN(c1nn(CC(F)(F)F)c2c(-c3ccc(C#CC(C)(C)S(C)(=O)=O)nc3[C@H](Cc3cc(F)cc(F)c3)NC(=O)Cn3nc(C(F)(F)F)c4c3C(F)(F)[C@@H]3C[C@H]43)ccc(Cl)c12)S(C)(=O)=O)N(C)C [Compound 22, (N-(4-chloro-7-(2-((S)-1-(2-((3bS,4aR)-5,5-difluoro-3-(trifluoromethyl)-3b,4,4a,5-tetrahydro-1H-cyclopropa[3,4]cyclopenta[1,2-c]pyrazol-1-yl)acetamido)-2-(3,5-difluorophenyl)ethyl)-6-(3-methyl-3-(methylsulfonyl)but-1-yn-1-yl)pyridin-3-yl)-1-(2,2,2-trifluoroethyl)-1H-indazol-3-yl)methylsulfonamido)methyl dimethyl-L-alaninate] | 45 μM | 3 μM
10 | C[C@@H](OC(=O)N(c1nn(CC(F)(F)F)c2c(-c3ccc(C#CC(C)(C)S(C)(=O)=O)nc3[C@H](Cc3cc(F)cc(F)c3)NC(=O)Cn3nc(C(F)(F)F)c4c3C(F)(F)[C@@H]3C[C@H]43)ccc(Cl)c12)S(C)(=O)=O)C(=O)O [Compound 116, (R)-2-(((4-chloro-7-(2-((S)-1-(2-((3bS,4aR)-5,5-difluoro-3-(trifluoromethyl)-3b,4,4a,5-tetrahydro-1H-cyclopropa[3,4]cyclopenta[1,2-c]pyrazol-1-yl)acetamido)-2-(3,5-difluorophenyl)ethyl)-6-(3-methyl-3-(methylsulfonyl)but-1-yn-1-yl)pyridin-3-yl)-1-(2,2,2-trifluoroethyl)-1H-indazol-3-yl)(methylsulfonyl)carbamoyl)oxy)propanoic acid] | 1/1 μM | 1/1 μM
11 | CC(C)(C)C(=O)OCN(c1nn(CC(F)(F)F)c2c(-c3ccc(C#CC(C)(C)S(C)(=O)=O)nc3[C@H](Cc3cc(F)cc(F)c3)NC(=O)Cn3nc(C(F)(F)F)c4c3C(F)(F)[C@@H]3C[C@H]43)ccc(Cl)c12)S(C)(=O)=O [Compound 30, (N-(4-chloro-7-(2-((S)-1-(2-((3bS,4aR)-5,5-difluoro-3-(trifluoromethyl)-3b,4,4a,5-tetrahydro-1H-cyclopropa[3,4]cyclopenta[1,2-c]pyrazol-1-yl)acetamido)-2-(3,5-difluorophenyl)ethyl)-6-(3-methyl-3-(methylsulfonyl)but-1-yn-1-yl)pyridin-3-yl)-1-(2,2,2-trifluoroethyl)-1H-indazol-3-yl)methylsulfonamido)methyl pivalate] | 1/1 μM | 1/1 μM
